Assays:
[1] = human subjects; cited from earlier work
[2] = tested on: LNCaP cells; test: Co-transfection luciferase assay with 10 nM R1881 (Example 2); type: cell-based, human; details: charcoal-stripped serum
Method: We performed transient transfections 24 hours later using Tfx-50 (Promega) with a lipid:DNA ratio of 4:1. Each transfection mixture contained 0.5 μg of the effector and reporter plasmids or reporter plasmid alone with pGL3B carrier DNA. Methylenetrienolone (R1881; NEN Life Science Products, Boston, Mass.) was added to the medium at a concentration of 10 nM/well one hour following transfection, and the cells were incubated for 48 h. The cells were harvested and lysed using the passive lysis buffer provided in the assay kit for measuring FL activities (Dual-Reporter Luciferase Assay System, Promega).

Nc1nc(=O)c2ncn(CCC(CO)C[18F])c2[nH]1 (stereo not drawn) [[^18F]FHBG, 9-(4-[18F]-fluoro-3-hydroxymethylbutyl)guanine]
blood-brain-barrier penetration [1]: does not significantly cross the blood-brain-barrier

O=c1[nH]c(=O)n([C@@H]2O[C@H](CO)[C@@H](O)[C@@H]2F)cc1[125I] [[^124I]FIAU, 2′-fluoro-2′-deoxy-1-β-D-arabinofuranosyl-5-iodo-uracil]
blood-brain-barrier penetration [1]: cannot penetrate the blood brain barrier

CC(O)(CS(=O)(=O)c1ccc(F)cc1)C(=O)Nc1ccc(C#N)c(C(F)(F)F)c1 (stereo not drawn) [casodex, reference compound]
basal activity of the PSA enhancer constructs [2]: further reduced

From patent US7527942B2, “Transcription amplification system for molecular imaging” (The Regents of the University of California, priority 2002, dated 2009)
